Test results published in patent publication US8592374B2, “Neurotrophic peptides” (Research Foundation for Mental Hygiene, Inc., priority 2007, dated 2013).
Entries after “also recorded” stand apart in the source; their conditions may differ. Peptide text beside a SMILES is read from it. * marks the point of attachment. Adamantane1carbonyl = O=C(C12CC3CC(CC(C3)C1)C2)*; X1 = NC(=O)C12CC3CC(CC(N*)(C3)C1)C2

How the values were obtained:
[1] = General examination (physical state, body weight, exploratory activity, swim speed, floating); format: in vivo, mice; conditions: 25 nmol/day for 35 days
[2] = as above; format: in vivo, mice; conditions: 25 nmol/day for 35 days; remark: listed apart in the source
Protocol: All in vivo studies for characterization of compounds (stereology and behavioral analysis) were performed on 8-10-month-old female retired breeders of C57Bl6 background. Animals were acclimatized for at least 3 weeks to exclude occasional pregnant mice from the studies. Mice were group-housed (3 animals per cage) with a 12:12 hours light/dark cycle and with free access to food and water.
(§1) For the compound treatment, mice (8 animals/group) received subcutaneous implants of extended release depot pellets containing P21 or P22 at 25 nmol/day for 35 days of continuous dosing (Innovative Research of America, USA). For the control group (8 animals), pellets consisted of the carrier polymer only. Mice were anesthetized with 2.5% Avertin (0.38 ml for a 25 g animal). Under sterile conditions, pellets were implanted subcutaneously along the anterolateral aspect of the right shoulder with a precision trochar (Innovative Research of America). After recovery of anesthesia, animals were transferred to the animal colony. No complications associated with the implantation and treatment were observed. All procedures on animals were conducted in accordance with approved protocols from our Institutional Animal Welfare Committee.
The physical state and condition of animals were carefully monitored throughout the treatment by evaluating grooming, physical state and clasping reflex. Body weight was also recorded.
The test used was an adaptation of the procedure previously described by Sargolini and collaborators (Sargolini, F., et al. Behav Brain Res 138 (2003):153-63). The testing apparatus was a classic open field (i.e. a PVC square arena, 50×50 cm, with walls 40 cm high). The open field was placed in a part of the room separated from the experimentator with a black opaque curtain. The open field was surmounted by a video camera connected to a computer. Three objects were employed in this task. The general procedure consisted of three different phases: a familiarization phase (1 session of 20 min), a sample phase, and a test phase. On the first days, mice were individually submitted to the familiarization session during which they were introduced in the empty arena in order to become familiar with the apparatus. This familiarization session allowed to record a baseline level of locomotor activity (measuring the distance covered in the open field) and of anxiety (measuring the time the animals spent in the centre of the arena during the first five minutes). On the second day each mouse was first submitted to the sample phase (session 1, ten minutes) for which two identical objects were placed in a symmetric position from the centre of the arena. After a 15 minute delay during which the mouse returned to its home cage, it was reintroduced in the arena to perform the test phase (session 2, 10 min). The mouse was then exposed to two objects: a familiar object (previously presented during the sample phase) and a new object, placed at the same location as during the sample phase. Data collection was performed using a video tracking system (Smart version 2.0.14 software, Pan Lab/San Diego Instruments). Object discrimination was calculated as follows: OD=(time spent close to new object)/(time spent close to new object)+(time spent close to old object)×100

normal adult mice [3] = assay: Open field, time in the centre of the arena (anxiety); format: in vivo; conditions: 25 nmol/day, first five minutes of familiarization session
Protocol: as §1
(§2) The test used was an adaptation of the procedure previously described by Sargolini and collaborators (Sargolini, F., et al. Behav Brain Res 138 (2003):153-63). The testing apparatus was a classic open field (i.e. a PVC square arena, 50×50 cm, with walls 40 cm high). The open field was placed in a part of the room separated from the experimentator with a black opaque curtain. […] Object discrimination was calculated as follows: OD=(time spent close to new object)/(time spent close to new object)+(time spent close to old object)×100

normal adult mice [4] = assay: Spatial reference memory task in the water maze; format: in vivo
Protocol: as §1
Spatial reference learning and memory were evaluated in the water maze using a procedure adapted from that previously described by Morris et al. (Morris, R. G., et al. Nature 297 (1982): 681-3). The test required that mice used a spatial navigational strategy based on a spatial representation of the environment to find a fixed submerged escape platform. The procedure was performed in a 180 cm diameter circular tank. The pool was filled with water (21±1° C.) made opaque by adding white non-toxic paint. Acquisition started with the escape platform (15 cm diameter submerged 1 cm below water surface) in the Northwest quadrant and each animal was given 90 s to find the platform. […] At the end of each trial, the mouse was left on the platform for 20 seconds, then dried and returned to its home cage until the next trial. Five such acquisition trials were given on each day for four consecutive days. A test for retention, or probe trial (PT), was given 24 hours later. During the probe trial the mouse was allowed to swim in the tank without the escape platform for 60 seconds. This was followed by second and third probe trials 15 and 30 days after the first probe trial.
The measures of learning were the time and distance covered to reach the escape platform. For the probe trial, the tank was divided into four imaginary quadrants and a small zone where the escape platform had been. The measure of retention was calculated as the ratio of time spent or distance covered in target quadrant over that in the three other quadrants.
Mouse behavior in the water maze was monitored by a Samsung Digital Camera (SDC 4304) mounted to the ceiling and tracked and timed by a SMART (Pan Lab/San Diego Instruments) version 2.0.14 software.

normal adult mice [5] = assay: One-trial object recognition test; format: in vivo; conditions: 25 nmol/day, test phase after 15 minute delay
Protocol: as §1
In the one-trial object recognition task, animals are exposed to two different objects which they have to identify as novel or familiar based on the memory of an earlier experience with one of the two objects they encountered in the same open field. The familiar object is explored shorter than the novel encountered one because the representation of the former is still available in memory. The one-trial object recognition task tests some aspects of episodic memory but is limited to memory of an object (what), the location of an object (where), and the context in which it was encountered (which). However, the temporal dimension of the episode remains inaccessible to the experimentator, and because of this reason this task in animals is considered a test of short term memory.
as §2, with “high).” for “high). The open field was placed in a part of the room separated from the experimentator with a black opaque curtain.”

[6] = system: adult hippocampal progenitors in the dentate gyrus; assay: Neurogenesis in the DG (BrdU-positive and BrdU/NeuN-double-positive cells); format: in vivo, mice; conditions: 25 nmol/day for 35 days
Protocol: as §1
To investigate neurogenesis, BrdU (Sigma, USA) was given as two daily i.p. injections (100 mg/kg/dose) for five days starting on day 2 of compounds treatment.
At the end of the behavioral experiment, animals were anesthetized with an overdose of sodium pentobarbital (120 mg/kg) and transcardially perfused with 0.1 M phosphate buffered saline (PBS). After perfusion, the brains were removed from the skull, the left hemisphere was immediately frozen for future biochemical analysis and the right hemisphere was immersion fixed in 4% paraformaldehyde in 0.1 M PBS for at least 24 hours at room temperature. Tissues were equilibrated and stored in 30% sucrose solution at 4° C. until sectioning. The brains were sectioned sagittaly on a freezing sliding microtome at 40 μm through the entire hippocampus and the sections were stored in glycol anti-freeze solution (Ethylene glycol, glycerol and 0.1 M PBS in 3:3:4 ratio) at −20° C. until further processing.
For double labeling of BrdU and NeuN, brain sections were pretreated with 2 M HCl at 37° C. for 30 min and neutralized with 0.1 M borate buffer (pH 8.5) for 10 minutes. […]
Neurogenesis in the dentate gyrus was evaluated by counting the number of BrdU-positive and BrdU/NeuN-double-positive cells in the dentate gyrus (DG). The number of positive cells was determined in every fifth section in a series of 40 μm sagittal sections throughout the DG using unbiased sterology. All BrdU-positive cells in the subgranular zone (SGZ) and granule cell layer (GCL) were counted using a fluorescent microscope (Nikon Eclipse 90i, Nikon Corporation, Japan). Double labeled cells were assessed by a confocal imaging system (D-Eclipse C1, Nikon Corporation). […] For each brain, at least 100 cells were counted based on coefficient of error determinations.

[7] = system: embryonic chick ciliary neurons; conditions: embryonic chick ciliary neurons in culture; cited from earlier work
human CNTF receptor = target: T1, human CNTF receptor (Homo sapiens, UniProt P26992); conditions: cited from earlier work
T1 sequence (P26992 23-342): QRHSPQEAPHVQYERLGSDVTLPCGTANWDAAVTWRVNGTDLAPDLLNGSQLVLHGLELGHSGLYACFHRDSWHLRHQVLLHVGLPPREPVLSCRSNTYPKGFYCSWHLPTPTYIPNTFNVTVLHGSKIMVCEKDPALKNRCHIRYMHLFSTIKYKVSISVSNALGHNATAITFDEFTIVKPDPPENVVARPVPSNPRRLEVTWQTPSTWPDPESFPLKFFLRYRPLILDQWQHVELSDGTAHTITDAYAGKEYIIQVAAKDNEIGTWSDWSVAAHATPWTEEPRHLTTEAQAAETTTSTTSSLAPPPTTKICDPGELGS

AHPs = assay: Cell-based assay for differentiation of AHPs with CNTF (βIII-tubulin/DAPI); conditions: 1 hr fixation
Protocol: βIII-tubulin antigenicity is compromised by fixation, although longer fixation improves attachment to the plates. Therefore, plates with different coatings for their suitability to be used in differentiation assay using CNTF (0.1, 1, 10, 100 ng/ml) were tested. Coating matrices tested: • poly D-lysine • poly D-lysine/laminin • poly L-ornithine/laminin • polyethyleneimine • collagen I • fibronectin The best immunostaining for βIII-tubulin was with 10 min fixation. However, since less cells were lost with 1 hr fixation, the differentiation assay with CNTF was performed with 1 hr fixation. The best differentiation was achieved on polyethyleneimine coated plates using the ratio of βIII-tubulin immunostaining to DAPI nuclear staining (cell number) as % of control as a relative measure of differentiation.

[8] = cited from earlier work

In the case of CC(C)C[C@H](NC(=O)CNC(=O)CNC(=O)[C@H](CC(=O)O)NC(=O)C12CC3CC(CC(C3)C1)C2)C(=O)NC12CC3CC(C1)CC(C(N)=O)(C3)C2 [Peptide P22, 1-AdCO-DGGL^AG-NH2] (Adamantane1carbonyl-DGGL-X1), the “floating behavior in the water maze task (sign of depression or locomotor impairment)” value [1] is reported as “no floating behavior was observed”, the swim speed ([1]; water maze) is reported as “no alteration; also recorded: did not induce any effect” and the “exploratory behavior / exploratory activity” value ([2]; open field) is reported as “no alteration; also recorded: did not induce any effect”. For the same molecule, the body weight ([2]; subcutaneous pellets) was “no alteration; also recorded: did not induce any effect”, the general physical state ([2]; subcutaneous pellets) was “no alteration” and the “level of anxiety (time in the center of the open field)” value (normal adult mice [3]) was “spent more time in the center of the open field than control animals; also recorded: reduced anxiety level”. For the same molecule, the “effect in the probe trials” value (normal adult mice [4]; three probe trials) was “No statistically significant effect”, the “escape latencies to reach the submerged platform (learning)” value (normal adult mice [4]; training day 2 to 4, compared to control group) was “significantly reduced; also recorded: increased performance in the learning of spatial memory task” and the “time exploring the new object versus the familiar object” value (normal adult mice [5]) was “did not preferentially explore the novel object”. The “BrdU positive cells in the DG (GCL and SGZ)” value [6] was “No significant alteration in neurogenesis” and the “BrdU/NeuN positive cells in the DG (GCL)” value [6] was “No significant changes”.

B1: recombinant rat CNTF: recombinant rat ciliary neurotrophic factor (protein, UniProt P20294 1-200, looked up)
Ciliary neurotrophic factor: MAFAEQTPLTLHRRDLCSRSIWLARKIRSDLTALMESYVKHQGLNKNINLDSVDGVPVASTDRWSEMTEAERLQENLQAYRTFQGMLTKLLEDQRVHFTPTEGDFHQAIHTLMLQVSAFAYQLEELMVLLEQKIPENEADGMPATVGDGGLFEKKLWGLKVLQELSQWTVRSIHDLRVISSHQMGISALESHYGAKDKQM
In the case of B1, the “biological activity in supporting survival and neurite outgrowth, relative to recombinant human CNTF” value [7] is listed as “four times better” and the “affinity for the human CNTF receptor relative to human CNTF” value (human CNTF receptor) is listed as “higher affinity”.

B2: CNTF: Ciliary neurotrophic factor, a survival factor for various neuronal cell types; 200 amino acid protein (protein, UniProt P26441 1-200, looked up)
chain: MAFTEHSPLTPHRRDLCSRSIWLARKIRSDLTALTESYVKHQGLNKNINLDSADGMPVASTDQWSELTEAERLQENLQAYRTFHVLLARLLEDQQVHFTPTEGDFHQAIHTLLLQVAAFAYQIEELMILLEYKIPRNEADGMPINVGDGGLFEKKLWGLKVLQELSQWTVRSIHDLRFISSHQTGIPARGSHYIANNKKM
modifications: full-length
notes: Ciliary neurotrophic factor, a survival factor for various neuronal cell types; 200 amino acid protein
For B2, the “βIII-tu/DAPI (% of Control) (100 ng/ml CNTF)” value (shortened to “βIII-tu/DAPI (% of Control)”) (AHPs; coating poly D-lysine) was 175 % of Control, the “βIII-tu/DAPI (% of Control)” value (AHPs; coating poly D-lysine/laminin) was 240 % of Control and the “βIII-tu/DAPI (% of Control)” value (AHPs; coating poly L-ornithine/laminin) was 330 % of Control. For the same molecule, the “βIII-tu/DAPI (% of Control)” value (AHPs; coating poly ethyleneimine) was 480 % of Control and the “side effects of administration in human clinical trials” value [8] was “anorexia, skeletal muscle loss, hyperalgesia, cramps, and muscle pain”.
